Key:
[1] = system: Human osteosarcoma U2OS cells; experiment: Acidic vesicle formation (lysosome/autolysosome staining, LysoView 633 / LysoTracker Deep Red), stimulation of autophagy; format: cell-based; details: 24 hours; for activation at 0.8 µM: read-out: Activity (percentage increase in acidic vesicle formation over the DMSO-treated control); for activation at 10 µM: read-out: increase in acidic vesicle formation over the DMSO-treated control
Description: Lysosomes play a fundamental role in the autophagic pathway by fusing with autophagosomes and creating ‘autolysosomes’ in order to digest their contents. Stimulation of lysosome and autolysosome formation by a compound is indicative of a stimulation of autophagy. The ability of compounds to stimulate lysosome and autolysosome formation, and thus autophagy, in live cells was assessed via fluorescent microscopy using various fluorescent stains for labelling and tracking acidic organelles (including lysosomes and autolysosomes) such as: LysoView™ 650 (70059 and 70059-T, Biotium), LysoView™633 (70058 and 70058-T, Biotium) and LysoTracker™ Deep Red (L12492, ThermoFisher Scientific). The cellular phenotype was quantitatively assessed for the induction of acidic vesicle formation and compared to a non-treated control, thus providing a measure of the ability of the compound under investigation to stimulate autophagy.
Representative procedure using LysoView™633 dye or LysoTracker™ Deep Red dye: Human osteosarcoma U2OS cells (40,000 cells/well) were seeded in a 24 well glass bottom plate (Sensoplate, Greiner Bio-One) and were incubated overnight in a humidified atmosphere at 37° C. and 5% CO2. Cells were grown in DMEM (Gibco) supplemented with 10% Fetal Bovine Serum (FBS) and 100 units/ml penicillin and 100 μg/ml streptomycin (Invitrogen). After the attachment period, cells were treated with different compounds of interest (at various concentrations in DMSO) or DMSO (non-treated control) in cell culture medium and were incubated for 24 hours. Compound-containing medium was removed and cells were incubated with pre-warmed cell culture medium containing 1× LysoView™ 633 (70058 and 70058-T, Biotium) or 50 nM LysoTracker™ Deep Red (L12492, ThermoFisher Scientific) for 45 minutes at 37° C. Finally, cell nuclei were stained for 10 minutes using Hoechst 33342 (1 μg/mL) and then the medium was replaced with fresh medium. The 24 well plate was then fitted into a heated stage on the microscope and cells maintained at 37° C. Images were captured using appropriate filter set for Cy5 and DAPI detection with the EVOS M7000 Microscope (ThermoFisher Scientific). The cellular phenotype was visually assessed for the induction of acidic vesicle formation relative to the non-treated control; multiple images were acquired and analysed using ImageJ or Cell Profiler.

[2] = Bioavailability / brain exposure in CD1 mice; format: in vivo; details: dose of 30 mg/kg
Description: The compounds have good properties for oral dosing and readily cross the blood brain barrier. For example, in CD1 mice, Compound 9 has a maximum concentration in brain plasma of 5067 ng/ml after 30 minutes at a dose of 30 mg/kg. Compound 12 has a maximum concentration in brain plasma of 5853 ng/ml after 8 hours at a dose of 30 mg/kg.

[3] = system: C57BL/6JRj mice injured by intra-nigral injections of alpha-synuclein and CBE; experiment: Mouse model of Parkinson's disease (intra-nigral alpha-synuclein protofibrils plus CBE); format: in vivo; details: 30 mg/kg per os on the first day, then 10 mg/kg per os once a day; for bar test: decrease in the mean time required to cross the bar compared to the α-syn/CBE injured group / bar test: reduction in the mean number of steps required to cross the bar compared to the α-syn/CBE injured group / bar test: reduction in the number of misplaced steps (failed strides) compared to the α-syn/CBE injured group: week 3; for decrease in the aggregation of α-syn in TH neurons (α-syn area) compared to the α-syn/CBE injured group / grid walking test: increase in the total distance travelled during the test / grid walking test: reduction in the mean number of failures per meter (number of missed steps) / increase in the number of dopaminergic TH positive neurons in the SNpc compared to the α-syn/CBE injured group: week 4
Text: This model (run by Neuro-Sys SAS, France) uses C57BL/6JRj mice injured by intra-nigral injections of a solution containing protofibrils of alpha-synuclein (α-syn, precisely quantified by automatic Western Blot) and combined with pharmacological inhibition of GBA by conduritol B epoxide (CBE), in aged mice. The model mimics the main pathologies of PD: loss of dopaminergic neurons in the substantia nigra, neuroinflammation, deficits in motor coordination and synucleinopathy (α-syn aggregation). Any substance with positive effects in this model may be useful as a new therapeutic agent for the treatment or prevention of PD.
• Type of animal: C57BL/6JRj (Male) • Age: 18 months old • Supplier: Janvier Labs • Animal number: 10 mice per group • Acclimation and clinical signs: Animals arrived on site 7 days (one week) before the experiment to allow optimal acclimation.
Overview: CBE was administered along with the test compounds, starting on the day of the stereotaxic injections of the α-syn oligomer preparation.
Test compounds at specific concentrations (see below) were administered per os (gavage or drinking water). • Test compound treatment: The test compounds were solubilized (vehicle=water), aliquoted and stored at −20° C. Aliquots were thawed overnight at 4° C. and given once a day. Treatment started on the day of the stereotaxic injections of α-syn preparation (Day 0). Treatment was administrated until the last day of the experiment (Day 28; =day of dissection). • CBE dose and administration: 50 mg/kg, Intraperitoneal (i.p.), twice a day. • CBE treatment: Administration of CBE (vehicle=saline [NaCl 0.9%] started on the day of the stereotaxic injections of α-syn preparation (Day 0). Treatment was administrated until the last day of the experiment (Day 28; =day of dissection), • Untreated control: vehicle (saline; i.p.) administered twice a day, • Stereotaxic injections of α-syn oligomers: Human α-syn peptide (stock at 69 μM in water at −20° C.) was reconstituted at 50 μM in NaCl, 0.9% (final concentration). All mice in compound treated groups were subjected to surgery and received 2.5 μL of α-syn solution. Mice were anesthetized by isoflurane (4%, for induction), in an induction chamber coupled with a vaporizer and to an oxygen concentrator. Mice were placed on the stereotaxic frame. Anesthesia was maintained by isoflurane (2%) with a face mask coupled to the isoflurane vaporizer and oxygen concentrator machine. The skull was exposed and holes were drilled. The α-syn preparation was bilaterally injected into the SNpc, at the following coordinates: A-P, −0.3 mm; M-L, +0.12 mm; D-V, −0.45 mm. Depth of anesthesia and rectal temperature were verified every 5 minutes. After surgery, mice were allowed to recover before being placed back in the cage.
• i) Body mass • ii) Assessment of motor coordination: bar test and grid walking test • iii) Dopaminergic Tyrosine hydroxylase (TH)-positive neuron survival in the substantia nigra pars compacta (SNpc), i.e. a measure of the number of TH neurons in the SNpc • iv) α-syn area in TH positive neurons (a measure of the degree of aggregation of α-syn in TH positive neurons, in the SNpc)
• Overall: For overall evaluation and body mass, mice were observed daily, and body mass was monitored prior to drug administration. • Assessment of motor coordination: bar test.
In the third week (Week 3) post-surgery, motor coordination of the mice was assessed with the bar test. The principle of the test is based on the capacity of the mice to cross a horizontal bar connected to a platform (18 mm of diameter, 60 cm long). The test requires good coordination between front and hindlimbs, and good balance. Mice are placed at one extremity of the bar and need to reach a platform located at the other side of the bar. Motor coordination was studied after two training sessions, one and two days before the test. Three sessions were recorded by a video camera system. […]

| Structure (SMILES) | activation at 0.8 µM [1] | activation at 10 µM [1] | maximum concentration in brain plasma [2] | time of maximum concentration in brain plasma [2] | bar test: decrease in the mean time required to cross the bar compared to the α-syn/CBE injured group [3] | bar test: reduction in the mean number of steps required to cross the bar compared to the α-syn/CBE injured group [3] | bar test: reduction in the number of misplaced steps (failed strides) compared to the α-syn/CBE injured group [3] | decrease in the aggregation of α-syn in TH neurons (α-syn area) compared to the α-syn/CBE injured group [3] | grid walking test: increase in the total distance travelled during the test [3] | grid walking test: reduction in the mean number of failures per meter (number of missed steps) [3] | increase in the number of dopaminergic TH positive neurons in the SNpc compared to the α-syn/CBE injured group [3] |
| --- | --- | --- | --- | --- | --- | --- | --- | --- | --- | --- | --- |
| CCOc1ccc(Cl)cc1CN1CCN[C@@H](C)C1.Cl [Compound 9, (S)-1-(5-chloro-2-ethoxybenzyl)-3-methylpiperazine hydrochloride] | 10 to 30% | ≥ 25% | 5067 ng/mL | 30 min | – | – | – | – | – | – | – |
| CCOc1ccc(CN2CC[C@H](CN)C2)cc1Cl.Cl [Compound 23, (R)-(1-(3-chloro-4-ethoxybenzyl)pyrrolidin-3-yl) methanamine hydrochloride] | – | ≥ 25% | – | – | 11% | 3% | 39% | 16% | 14% | 14% | 31% |
| CCOc1ccc(CN2CC[C@@H](CN)C2)cc1Cl.Cl [Compound 30, (S)-(1-(3-chloro-4-ethoxybenzyl)pyrrolidin-3-yl)methanamine hydrochloride] | > 100% | ≥ 25% | – | – | 25% | 7% | 19% | 30% | 36% | 28% | 57% |

Reference: patent publication US20260193180A1, “AUTOPHAGY INDUCING COMPOUNDS AND USES THEREOF” (SAMSARA THERAPEUTICS INC., priority 2022, published 2026)
